Data: patent US20040223963A1, “Method for treating ischemic stroke with melatonin” (priority 2003, published 2004)
Entries after “also recorded” stand apart in the source; their conditions may differ. Read-outs that look alike come from different tables or passages of the source.

Assays:
ischemic stroke = conditions: cited from earlier work
[1] = test system: adult Sprague-Dawley rats; test: endovascular middle cerebral artery occlusion (MCAO) stroke models, permanent and 3-hour; assay type: in vivo, rat
Text: The laboratory observations in support of the disclosed invention include experiments with rats. In experimental studies, the control groups of animal received identical handling plus an intraperitoneal injection of the vehicle alone (i.e. without melatonin).

women = conditions: oral, about 300 mg daily for about 4 months; cited from earlier work
[2] = clinical trials on neuroprotection against ischemic stroke
[3] = second and third doses added at 24 and 48 hours of ischemia

Compound: CN(c1nc2ccccc2s1)C1CCN(C[C@H](O)COc2ccc(F)c(F)c2)CC1 [Lubeluzole]
- Results (efficacy) (ischemic stroke; [2]): No efficacy

Compound: COc1ccc(Cl)cc1[C@]1(F)C(=O)Nc2cc(C(F)(F)F)ccc21 [BMS-204352]
- Results (efficacy) (ischemic stroke; [2]): No efficacy

Compound: CCCn1cnc2c1c(=O)n(CCCCC(C)=O)c(=O)n2C [Propentophylline]
- Results (adverse effects) (ischemic stroke; [2]): Trial stopped, adverse effects

Compound: O=C1NC(c2ccccc2)(c2ccccc2)C(=O)N1COP(=O)(O)O [Fosphenytoin]
- Results (efficacy) (ischemic stroke; [2]): No efficacy

Compound: bFGF: Neurotrophic factor
- Results (adverse effects) (ischemic stroke; in vivo): Trial stopped, adverse effects

Compound: C[C@@H]1C[C@H]2[C@@H]3CCC4=CC(=O)C=C[C@]4(C)C3=CC[C@]2(C)[C@H]1C(=O)CN1CCN(c2cc(N3CCCC3)nc(N3CCCC3)n2)CC1 [Tirilazad]
- Results (efficacy) (ischemic stroke; [2]): No efficacy

Compound: OC(CN1CCC(Cc2ccc(F)cc2)CC1)c1ccc(Cl)cc1 (centres unmarked) [Eliprodil]
- Results (efficacy) (ischemic stroke; [2]): No efficacy

Compound: CCc1cccc(N(C)C(N)=Nc2cccc3ccccc23)c1 [Aptiganel]
- Results (adverse effects) (ischemic stroke; [2]): Trial stopped, adverse effects

Compound: NC(=O)CN1CCCC1=O [Piracetam]
- Results (efficacy) (ischemic stroke; [2]): No overall efficacy,

Compound: C[C@]12N[C@H](Cc3ccccc31)c1ccccc12 [Dizolcipine]
- Results (adverse effects) (ischemic stroke; [2]): Trial stopped, adverse effects

Compound: NS(=O)(=O)c1cccc2c1c([N+](=O)[O-])cc1nc(O)c(O)nc12 [NBQX]
- Results (adverse effects) (ischemic stroke; in vivo): Trial stopped, adverse effects

Compound: C=C1CC[C@@]2(O)[C@H]3Cc4ccc(O)c5c4[C@@]2(CCN3CC2CC2)[C@H]1O5 [Nalmefene]
- Results (efficacy) (ischemic stroke; [2]): No efficacy

Compound: O=C(O)[C@@H]1C[C@H](CP(=O)(O)O)CCN1 (racemic) [Selfotel]
- Results (adverse effects) (ischemic stroke; [2]): Trial stopped, adverse effects

Compound: COC(=O)C1=C(C)NC(C)=C(C(=O)OC(C)C)C1c1cccc2nonc12 (centres unmarked) [Isradipine]
- Results (efficacy) (ischemic stroke; [2]): No efficacy

Compound: COc1ccc2[nH]cc(CCNC(C)=O)c2c1 [melatonin]
- efficacy at high dose ([1]; 50 mg/kg): effective
- harmful effects ([1]; doses up to about 50 mg/kg): can be administered safely; also recorded: no evidence of producing any harmful effects
- reduction of infarct volume ([1]; pre-treatment, single i.p. injection, about 5 to about 15 mg/kg, at about 72 hours, permanent and 3-hour MCAO): about 40%
- effect on systemic hemodynamic parameters and regional cerebral blood flow ([1]; pre-treatment, single i.p. injection, about 5 to about 15 mg/kg, permanent and 3-hour MCAO): without affecting
- infarct volume with additional doses [1, 3]: tended to achieve increased reduction in infarct volume
- treatment time window [1, 3]: failed to extend the treatment time window beyond about 3 hours
- efficacy of treatment after onset of ischemia ([1]; single injection about 5 mg/kg commenced at 1 hour or less after onset of ischemia, 3-hour MCAO): effective
- effect on ovulation (women): inhibit ovulation
- side effects (women): without significant side effects

Compound: O=C(/C=C/c1c(C(=O)O)[nH]c2cc(Cl)cc(Cl)c12)Nc1ccccc1 [GV150526]
- Results (efficacy) (ischemic stroke; [2]): No efficacy

Compound: Fc1ccc(C(c2ccc(F)cc2)N2CCN(C/C=C/c3ccccc3)CC2)cc1 [Flunarizine]
- Results (efficacy) (ischemic stroke; [2]): No efficacy

Compound: CN1CC[C@@]23CCCC[C@@H]2[C@@H]1Cc1ccc(O)cc13 [Dextrorfan]
- Results (adverse effects) (ischemic stroke; [2]): Trial stopped, adverse effects
